By melting point is commonly meant the temperature, or range, at which the solid turns liquid. In turn, `O=C(CC1CC1)N[C@H]1CC[C@H](CCN2CCN(c3nccc4c3CCO4)CC2)CC1` registered a melting point of 193 °C.

In the case of `Cc1nnc2n1-c1sc(Cl)cc1C(c1ccccc1F)=NC2`, the melting point was 187 to 189 °C. Next, `Cc1cncc(-c2ccc3c(=O)c(C(=O)O)cn(C4CC4)c3c2C)c1`: 232 °C; `CN1C(=O)CC[C@]2(C)c3ccc(-c4ccc5c(c4)CCC5=O)cc3CC[C@@H]12`: 175 to 178 °C. Turning to `COc1ccc(CCNC(=O)C(F)(F)F)c2c1NC(=O)C2=O`, the melting point lay in the range of 234 to 237 °C. The compound `Cn1cc(S(C)(=O)=O)c(=O)c2sccc21` showed a melting point of 258 to 261 °C. `O=C(NC(Cc1ccc(OCc2ccccc2F)cc1)C(=O)O)c1cn2ccc(-c3ccc(Cl)cc3)cc2n1` (centres undefined) came in with a melting point of 250 to 252 °C. Regarding `CN(CCc1ccccc1)c1ssc(=O)c1Cl`, the melting point turned out to be 75 °C. With `COc1ccc2c(n1)c(CCNC(=O)c1ccco1)c1n2CCCc2ccccc2-1` the figure was 70 to 71 °C; with `Cc1cc(Cl)c2cc(O)ccc2n1`, 233 °C; with `O=c1[nH]c2c3ccccc3c(=CO)c2n2ccnc12`, 290 °C. In turn, `CC(=O)OC1CCC2(C)C(CCC3C4CCC(C(C)=O)C4(C)CC(=O)C32Cl)C1` (centres undefined) returned a melting point of 151 to 154 °C. The compound `FC(F)=C(F)CC(=S)Nc1ccccc1` came in with a melting point of 65 to 67 °C. With `CNC(=O)Nc1cc(-c2c(-c3ccc(F)c(C)c3)nc3cccnn23)ccn1`, the melting point was in the range of 225 to 227 °C. In turn, `CCn1c(=O)c2[nH]c(/C=C/c3cccc(OC(F)(F)F)c3)nc2n(CC)c1=O` gave a melting point of 266 to 267 °C. `CCOC(=O)c1sc(Oc2cccnc2)c2c1CCc1cnn(C)c1-2` had a melting point of 247 to 248 °C. Next, `Cc1c2n(c(=O)c3c(O)cccc13)CCCS2=O` (centres undefined): 169 to 170 °C; `CCCCOC(=O)N1CCNCC1`: 98 °C. `CC(C)(C(=O)c1ccccc1)n1cncn1` had a melting point of 134 to 135 °C.

As for `CCn1ncc2nc(C(=O)O)c(C)nc21`, the melting point is 148 to 149 °C. Next, `Cc1ccc(NC(=O)c2cccc(N(C)C)c2)cc1NC(=O)c1ccccc1O`: 136 to 139 °C; `Cc1c(-c2cc(C(F)(F)F)cc(C(F)(F)F)c2)c(F)cc2nc(N)nc(N)c12`: 224 to 225 °C. Take `CC1CC(=O)NN=C1c1ccc(NC(=O)c2cccs2)cc1` (centres undefined): the melting point was in the range of 256 to 258 °C. The compound `COc1ccc2c(c1)[nH]c1cc(OC)ccc12` yielded a melting point of 273 to 274 °C. For `C#CCN(CCC12CC3CC(CC(C3)C1)C2)C(=O)NCCCc1ccncc1`, the melting point is 152 to 154 °C.

`CCc1nc2c(C)cc(C)nc2n1Cc1cccc(C(=Cc2nnn[nH]2)c2ccccc2)c1` registered a melting point of 187 to 195 °C. Next, `CN(C)C1(Cc2ccccc2)CCC(=O)CC1`: 80 to 84 °C; `Cc1cccc(-c2[nH]c(C(C)C)nc2-c2cccc(-n3ccnc3)c2)n1`: 158 to 161 °C; `Cc1cc2c(-c3cn(C)c(C(F)(F)F)cc3=O)c(F)cc(Cl)c2o1`: 208 to 211 °C.

Compound `CCCCCCCCCCCCNC(=O)c1cc(Br)c(OCC(=O)O)c(-c2ccccc2F)c1` came in with a melting point of 128 to 138 °C. `Cc1ccc(CC2CCN(C(=O)NC(=O)c3ccc(OCc4ccccc4)cc3)CC2)cc1` had a melting point of 204 to 208 °C. For the compound `CCOC(=O)N1CCC(c2ccc(N3CC(COC)OC3=O)cc2)CC1` (racemic), the melting point is 86 to 88 °C. Next, `CCOC(=O)CCc1c(OC)cncc1OC`: 66 to 67 °C. Consider `CC(Oc1ncn(-c2cccc(Br)c2)n1)C(=O)NC1CC1` (centres undefined), for which the melting point was 134 to 135 °C. In turn, `CN(CCc1ccc(NS(C)(=O)=O)cc1)Cc1cc2cc(NS(C)(=O)=O)ccc2o1` displayed a melting point of 177 to 179 °C. With `CCOC(=O)Cc1sc(Sc2cc(C(=O)OC)ccn2)nc1C` the figure was 52 to 54 °C; with `CC1(C)CSCC(C)(C)c2[nH]c(-c3ccccc3)nc21`, 223 to 224 °C; with `O=[N+]([O-])C12C3C4C1C1(Cl)C2C3C41[N+](=O)[O-]` (centres undefined), 145 to 147 °C.

Take `COc1cc(N)c(Cl)cc1C(=O)NCC1CCN(CCCCCC(=O)c2ccc(Cl)cc2)CC1`: the melting point was 156 to 158 °C. For the compound `Cc1ccc(-c2c(Cl)ncnc2OCCO)cc1`, the melting point was 62 to 64 °C. The compound `O=c1[nH]c2cc(Cl)c(Cl)cc2[n+]([O-])c1-c1ccc(O)cc1` registered a melting point of 276 to 278 °C.

`Cn1nc(N=Cc2ccncc2)nc1NCCCOC1=CCC=C(CN2CCCC2)C1` returned a melting point of 166 to 167 °C.

Compound `COc1cnc(CSc2nc3cc(OC(F)(F)C(F)F)ccc3[nH]2)c(C)c1OC` gave a melting point of 127 to 128 °C. For the compound `COc1ccccc1-c1[nH]nc2c1C(=O)c1c(NC(C)=O)cccc1-2`, the melting point stood at 276 °C.

`O=Cc1coc2ccc(OCc3ccccc3)cc2c1=O` had a melting point of 163 to 166 °C.

With `Cc1nnsc1C(=O)Nc1ccc(-n2nc(C(F)(F)F)cc2OC(F)F)cc1`, the melting point lay in the range of 122 to 123 °C.

In turn, `COC(=O)C(C(=O)Cc1ccccc1)C1c2ccccc2C(=O)N1c1ccc2ccc(Cl)nc2n1` (centres undefined) gave a melting point of 185 °C. Turning to `O=C(C1CCC(Nc2nccc(-n3nnc4c(-c5ccsc5)cccc43)n2)CC1)N1CCC(O)CC1` (centres undefined), the melting point fell in the range of 233 to 234 °C. The compound `N#Cc1nn(-c2c(Cl)cc(C(F)(F)F)cc2Cl)cc1C1CC(F)(F)C1` had a melting point of 128 to 129 °C. For the compound `O=C(Nc1ccc2c(c1)COCC2)OCc1ccccc1`, the melting point lay in the range of 94 to 95 °C. Compound `COC(=O)c1cnccc1NC(=O)C(C)CSC(C)=O` (centres undefined) had a melting point of 55 to 57 °C. For `Cc1ccc2c(Cl)cc(Cl)c(OCC#N)c2n1`, the melting point fell in the range of 157 to 158 °C. For `CSC(=S)NN=Cc1nc(C)[nH]c1C`, the melting point is 279 to 281 °C. In turn, `Cc1nc(C)c(Cl)c(NCc2nccc(SCCCSCCSc3ncccn3)c2C)n1` had a melting point of 112 to 115 °C. Regarding `CC(=O)N(C1=C(NC2CC2)C(=O)c2c(cnn2C)C1=O)C1CC1`, the melting point lay in the range of 75 to 78 °C. With `CC(COc1ccc(C(=O)O)c(O)c1)C[Si](C)(O[Si](C)(C)C)O[Si](C)(C)C` (centres undefined) the figure was 117 to 118 °C; with `C/C(=C(\C#N)C(=S)/N=C/N(C)C)N1CCCN(c2ccc3c(c2)OCCO3)CC1`, 127 to 129 °C. Take `O=c1cc2c(nn1-c1ccc(Cl)cc1)-c1cccnc1CC2`: the melting point was 166 to 167 °C. For the compound `Clc1cc2c(c(-c3nc4ncccc4o3)c1)CCCC2`, the melting point was 130 to 132 °C.

Take `CCc1nc(-c2cccc(C(=O)O)c2)c(-c2ccnc(N)c2)s1`: the melting point lay within 273 to 274 °C.

The compound `COc1cc2c(cc1OC)[C@@H]1CCCC[C@@H]1N=C2c1ccc(N(S(=O)(=O)c2ccc([N+](=O)[O-])cc2)S(=O)(=O)c2ccc([N+](=O)[O-])cc2)cc1` (racemic) returned a melting point of 234 °C. Compound `COC(=O)c1cc(NC(C)=O)cc(NC(C)=O)c1` came in with a melting point of 220 to 221 °C. `COC(=O)c1cc(C(=O)c2nc(Br)c3ccccn23)ccc1N` gave a melting point of 230 °C.

`COc1ccc(OC)c(C=C2NC(=O)NC2=O)c1` had a melting point of 250 to 252 °C.

Values taken from a melting point compilation (Tetko et al.; mined from patent text by program, amines drawn as free bases though some values may be those of a salt).
